The target in one assay is T1, THIK-1-Y273W (Homo sapiens, UniProt Q9HB14, Y273W).
T1 construct: expressed in transfected cells; host or cells: Xenopus oocytes (mRNA injection)
T1 sequence (Q9HB14 1-408 Y273W): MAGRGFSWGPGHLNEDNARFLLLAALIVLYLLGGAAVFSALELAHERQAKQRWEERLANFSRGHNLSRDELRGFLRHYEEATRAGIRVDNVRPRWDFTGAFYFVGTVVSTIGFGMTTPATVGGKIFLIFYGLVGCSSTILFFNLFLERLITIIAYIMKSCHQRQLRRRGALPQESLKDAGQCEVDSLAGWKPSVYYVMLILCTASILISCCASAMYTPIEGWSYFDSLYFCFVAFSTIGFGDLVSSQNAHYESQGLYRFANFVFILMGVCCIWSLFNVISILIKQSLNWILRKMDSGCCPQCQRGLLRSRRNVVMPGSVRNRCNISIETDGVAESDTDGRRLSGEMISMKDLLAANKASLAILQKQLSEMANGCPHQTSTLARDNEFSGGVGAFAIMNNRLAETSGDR
The experiment in a line: Inside-out excised patch recordings, oocytes, THIK-1 Y273W mutant. The format is cell-based. The source says: (§1) Human K2P13.1 THIK-1 (GenBank accession number: NM_022054) and human K2P12.1 THIK-2 (NM_022055.1) were used in this study. For functional expression studies, the respective K^+ channel subtype coding sequences were subcloned into the oocyte expression vector pSGEM or the dual-purpose expression vector pFAW[41] and verified by sequencing. All mutant channels were obtained by site-directed mutagenesis and verified by sequencing. To increase surface expression and macroscopic currents, measurements of THIK-2 channels used a mutated ER retention motif, (R11A R12A R14A R15A R16A; THIK-2*)[20]. Vector DNA was linearized with NheI or MluI, and mRNA was synthesized in vitro using the SP6 or T7 AmpliCap Max High Yield Message Maker Kit (Cellscript, USA) or HiScribe T7 ARCA mRNA Kit (New England Biolabs).
Two-electrode voltage–clamp (TEVC) studies were performed in Xenopus oocytes. All animal use conformed to the Guide for the Care and Use of Laboratory Animals (NIH Publication 85–23), and all experiments using Xenopus toads were approved by the local ethics panels. Oocytes were stored at 17 °C in ND96 recording solution composed of (in mM): 96 NaCl, 2 KCl, 1.8 CaCl2, 1 MgCl2, 5 HEPES (pH 7.5 adjusted with NaOH and HCl), supplemented with Na-pyruvate (275 mg L^–1), theophylline (90 mg L^–1) and gentamicin (50 mg L^–1). Oocytes were injected with 1 ng mRNA for WT or mutant channels, and were incubated for 24–48 h at 17 °C. Two-electrode voltage clamp recordings were then performed as previously described[42],[43]. For macroscopic patch–clamp measurements, oocytes were obtained as described above incubated at 17 °C in a solution containing (mM): 54 NaCl, 30 KCl, 2.4 NaHCO3, 0.82 MgSO4 ×7 H2O, 0.41 CaCl2, 0.33 Ca(NO3)2 ×4 H2O and 7.5 TRIS (pH 7.4 adjusted with NaOH and HCl) for 1–4 days before use. Excised patch recordings in inside-out configuration conditions were performed at room temperature. Patch pipettes were made from thick-walled borosilicate glass GB 200TF-8P (Science Products), had resistances of 0.2–0.5 MΩ (tip diameter, 10–25 µm) and filled with a pipette solution (in mM): 120 KCl, 10 HEPES and 3.6 CaCl2 (pH 7.4 adjusted with KOH and HCl). […] Currents were recorded with an EPC10 amplifier (HEKA Electronics) and sampled at 10 kHz or higher, with filtering set to 3 kHz (–3 dB) or higher, as appropriate for sampling rate. For measurements of GPCR activation, whole-cell currents were recorded for THIK-1 in transiently transfected HEK-293 cells. […] Single-channel currents were recorded with an Axopatch 200B amplifier through a Digidata 1440A digitizer (Molecular Devices). Data were filtered at 2 kHz and recorded at a 200-kHz sampling rate with the program Clampex (Molecular Devices). […]

The next assay has as its target T2, THIK-1 R87D (Homo sapiens, UniProt Q9HB14, R87D).
T2 construct: expressed in transfected cells; host or cells: Xenopus oocytes (mRNA injection)
T2 sequence (Q9HB14 1-408 R87D): T1 sequence (Q9HB14 1-408 Y273W) with R87D, W273Y
The experiment in a line: Macroscopic inside-out excised patch recordings, oocytes, THIK-1 R87D mutant. The format is cell-based.
Excerpt: as §1
Two-electrode voltage–clamp (TEVC) studies were performed in Xenopus oocytes. All animal use conformed to the Guide for the Care and Use of Laboratory Animals (NIH Publication 85–23), and all experiments using Xenopus toads were approved by the local ethics panels. Oocytes were stored at 17 °C in ND96 recording solution composed of (in mM): 96 NaCl, 2 KCl, 1.8 CaCl2, 1 MgCl2, 5 HEPES (pH 7.5 adjusted with NaOH and HCl), supplemented with Na-pyruvate (275 mg L^–1), theophylline (90 mg L^–1) and gentamicin (50 mg L^–1). Oocytes were injected with 1 ng mRNA for WT or mutant channels, and were incubated for 24–48 h at 17 °C. Two-electrode voltage clamp recordings were then performed as previously described[42],[43]. For macroscopic patch–clamp measurements, oocytes were obtained as described above incubated at 17 °C in a solution containing (mM): 54 NaCl, 30 KCl, 2.4 NaHCO3, 0.82 MgSO4 ×7 H2O, 0.41 CaCl2, 0.33 Ca(NO3)2 ×4 H2O and 7.5 TRIS (pH 7.4 adjusted with NaOH and HCl) for 1–4 days before use. Excised patch recordings in inside-out configuration conditions were performed at room temperature. Patch pipettes were made from thick-walled borosilicate glass GB 200TF-8P (Science Products), had resistances of 0.2–0.5 MΩ (tip diameter, 10–25 µm) and filled with a pipette solution (in mM): 120 KCl, 10 HEPES and 3.6 CaCl2 (pH 7.4 adjusted with KOH and HCl). Intracellular bath solutions and compounds were applied to the cytoplasmic side of excised patches for the various K^+ channels through a gravity flow multi-barrel pipette system. The intracellular solution had the following composition (in mM): 120 KCl, 10 HEPES, 2 EGTA and 1 pyrophosphate (pH adjusted with KOH and HCl). Currents were recorded with an EPC10 amplifier (HEKA Electronics) and sampled at 10 kHz or higher, with filtering set to 3 kHz (–3 dB) or higher, as appropriate for sampling rate. For measurements of GPCR activation, whole-cell currents were recorded for THIK-1 in transiently transfected HEK-293 cells. Cells were stimulated by a ramp protocol between −100 and +60 mV (holding potential, −80 mV). The pipette solution was composed of (in mM): 140 KCl, 2 MgCl2, 1 CaCl2, 2.5 EGTA and 10 HEPES (pH 7.3 adjusted with KOH and HCl). The extracellular bath solution had the following composition (in mM): 135 NaCl, 5 KCl, 2 MgCl2, 2 CaCl2, 10 glucose and 10 HEPES pH (pH 7.3 adjusted with NaOH and HCl). Oxotremorine M (Oxo-M) was added to extracellular bath solution to obtain the final concentration. Single-channel currents were recorded with an Axopatch 200B amplifier through a Digidata 1440A digitizer (Molecular Devices). Data were filtered at 2 kHz and recorded at a 200-kHz sampling rate with the program Clampex (Molecular Devices). Pipette solution and bath solution for cell-attached recordings contained (in mM): 140 KCl, 2 MgCl2, 1 CaCl2 and 10 HEPES (pH 7.4 adjusted with KOH and HCl). For inside-out recordings, the bath solution contained (in mM): 140 KCl, 2 MgCl2, 1 CaCl2 and 10 HEPES (pH 7.2 adjusted with KOH and HCl). All experiments were conducted at room temperature. […]

The structures appear in SMILES notation. Residue numbers refer to the chain shown, from its start. “And” between values parts separate entries of the source, which are not always exact repeats. Identical values can stand only once.

With `CCCCC[N+](CCCCC)(CCCCC)CCCCC` [TPenA, tetrapentylammonium], at THIK-1-Y273W (individual recordings), the “τ of 1 mM TPenA block” value is 13.500 s and 9.700 s and 8.400 s and 10.003 s and 8.350 s and 4.860 s and 3.160 s and 2.380 s and 2.990 s and 4.490 s and 10.150 s and 2.500 s and 2.400 s and 9.800 s and 5.700 s and 4.500 s and 4.080 s; the “τ of 1 mM TPenA release” value is 20.400 s and 14.700 s and 10.800 s and 14.800 s and 23.260 s and 14.350 s and 14.990 s and 14.820 s and 16.280 s and 20.350 s and 17.660 s. For the same compound, at THIK-1-Y273W (mean), the “τ of 1 mM TPenA block” value is 6.29 s and the “τ of 1 mM TPenA release” value is given as 16.58 s.

One may read the inhibition as the drop in the measured response relative to a control, in per cent. A high value points to a response far below the control. On to `FC(F)(F)C(Cl)Br` (stereo not shown) [halothane], for which the “Inhibition (%)” value at THIK-1 R87D (3.0 mM halothane, R87D, individual recordings) is 54.110% and 64.133% and 70.295% and 57.409% and 74.945% and 46.769% and 63.754% and 70.637% and 69.367% and 64.901% and 58.344% and 70.045% and 57.366% and 63.096% and 56.800%. Further, on THIK-1 R87D (3.0 mM halothane, R87D, mean), the inhibition at 3000 µM was found to be 62.8%. Also, on THIK-1 R87D (THIK-1 R87D, 0.152 mM halothane), the inhibition at 152 µM amounted to 14.3%. This compound gave an inhibition at 304 µM against THIK-1 R87D (THIK-1 R87D, 0.304 mM halothane) of 26%. Moreover, the inhibition at 1520 µM at THIK-1 R87D (THIK-1 R87D, 1.52 mM halothane) amounted to 53.8%. Further, at THIK-1 R87D (THIK-1 R87D, 15.2 mM halothane), the inhibition at 15200 µM came out at 84.1%.

The record behind these values is paper PMC12263422, “Cryo-EM structure of the human THIK-1 K2P K^+ channel reveals a lower Y gate regulated by lipids and anesthetics” (Nature Structural & Molecular Biology, 2025).
